In patent publication US10244779B2, “Method of improving stability of sweet enhancer and composition containing stabilized sweet enhancer” (SENOMYX, INC., priority 2010, dated 2019):

Assays:
[1] = Photostability test of sweet enhancers with/without photostabilizers in Q-Sun Xenon Test Chamber
Protocol: Aqueous buffer solution at pH 7.1 contains 50 mM potassium dihydrogen phosphate and ˜32 mM sodium hydroxide (solutions of 1.0 M hydrochloric acid and 1.0 M sodium hydroxide are used to adjust pH). Aqueous buffer solution at pH 4.0 contains 50 mM citric acidmonosodium salt and ˜7.4 mM sodium hydroxide (solutions of 1.0 M hydrochloric acid and 1.0 M sodium hydroxide are used to adjust pH). Aqueous buffer solution at pH 2.8 contains 50 mM citric acid and ˜16 mM sodium hydroxide (solutions of 1.0 M hydrochloric acid and 1.0 M sodium hydroxide are used to adjust pH).
The stock solutions of the test compounds at 25 mM are made by dissolving the compounds in dimethyl sulfoxide. The solutions of the stabilizers are made by dissolving the materials in the aqueous buffers. The stock solutions are then diluted to 25 μM with the stabilizer solutions to prepare the test solution and 4-mL aliquots of the solutions are transferred to 20-mL clear glass vial for testing.
Accelerated photodegradation was studied using a Q-Sun Xenon Test Chamber (Q-Lab Model No. Xe-1-SC) at an irradiance setting of 350 mW/m^2 at 340 nm and temperature of 25 degrees Celsius. To put this in perspective, 24 hours of constant Q-Sun irradiation at these settings is approximately equivalent to 12.4 days of direct sunlight in the southwestern United States. At 0, 1, 2, 4, and 6 hours from the beginning of the radiation, a 0.4-mL aliquot from each vial is pippeted out to a 1-mL glass insert for analysis.
The samples are analyzed using an Agilent 1100 LC/MSD equipped with a quaternary pump and a diode-array detector (DAD). The peak areas from the MSD chromatograms are used for quantitation, and the photostability is shown by plotting the percentages of the test compound which remains intact at all time points. The peak areas from the DAD chromatograms are used for quantitation for stabilizers with concentration at 250 uM or higher. The instrument conditions are listed below. • Column: YMC ODS AQ 3 um, 4.0×23 mm • Column Temperature: Room temperature • Auto-sampler Temperature: Room temperature • Mobile Phase A: Water • Mobile Phase B: Methanol • Mobile Phase C: 1% Formic Acid • Gradient: % C is constant at 5%; % B from 5% to 95% in 2 min, then back to 5% at 2.1 min, and then held at 5% until 3.25 min; flow rate is 2 mL/min • Injection volume: 10 uL • Data Collection time: 2.75 minutes • MSD ion source: APCI • MSD Signal settings: Positive, selected ion monitoring (SIM) at the mass of the expected molecular ions. • UV detection wavelength: 230 nm. • MSD detection start time: 0.5 min
FIGS. 2 and 3 illustrate the photostability study of Compounds A and B under these condition: Direct sunlight was modeled using a Q-Sun Xenon Test Chamber (Q-Lab Model No. Xe-1-SC) at an irradiance setting of 350 mW/m^2 @340 nm, 25° C. Test samples were irradiated in the Q-Sun at these settings in pH 2.8 buffer with/without Compounds A and B in the presence/absence of the photo-stabilizers A (chlorogenic acid) and B (rutin, a.k.a. quercetin-3-rutinoside).
Direct sunlight was modeled using a Q-Sun Xenon Test Chamber (Q-Lab Model No. Xe-1-SC) at an irradiance setting of 350 mW/m^2 @340 nm, 25° C. Test samples were irradiated in the Q-Sun at these settings in pH 2.8 buffer with Compound A in the presence/absence of the photo-stabilizers. […] Direct sunlight was modeled using a Q-Sun Xenon Test Chamber (Q-Lab Model No. Xe-1-SC) at an irradiance setting of 350 mW/m^2 @340 nm, 25° C. Test samples were irradiated in the Q-Sun at these settings in pH 2.8 buffer with 25 μM of Compound A in the presence/absence of the photo-stabilizers at a concentration of 100 ppm. […] Direct sunlight was modeled using a Q-Sun Xenon Test Chamber (Q-Lab Model No. Xe-1-SC) at an irradiance setting of 350 mW/m^2 @340 nm, 25° C. Test samples were irradiated in the Q-Sun at these settings in pH 2.8 buffer with sweet enhancer Compound E in the presence/absence of the photostabilizers.

[2] = % of 25 μM Compound A remaining with the cinnamic acid or coumarin derivative at 100 ppm (Table 4), pH 2.8 buffer, Q-Sun 350 mW/m^2 @340 nm, 25° C.

COc1cc(C=CC(=O)O)cc(OC)c1O (stereo in doubt) [sinapinic acid]
% Remaining @ 1 hr [1, 2]: 100.00% | % Remaining @ 2 hrs [1, 2]: 99.98% | % Remaining @ 4 hrs [1, 2]: 100.12% | % Remaining @ 6 hrs [1, 2]: 98.52%

COc1ccc2ncc(C(=O)O)c(N)c2c1 [Compound B]
% of compound degraded after 6 hr of irradiation ([1]; pH 2.8): about 80%

CCC(CC)COc1cccc2nc(C)c(C(=O)O)c(N)c12 [Example 22, 4-amino-5-(2-ethylbutoxy)-2-methylquinoline-3-carboxylic Acid]
melting point: 145 to 151 °C

Cc1nc2cccc(OCC(C)(C)NC(=O)c3ccncc3)c2c(N)c1C(=O)O [Example 24, 4-amino-5-(2-(isonicotinamido)-2-methylpropoxy)-2-methylquinoline-3-carboxylic Acid]
melting point: 195 to 198 °C

Cc1nc2cccc(OCC(C)(C)NC(=O)c3cccc(O)c3)c2c(N)c1C(=O)O [Example 25, 4-amino-5-(2-(3-hydroxybenzamido)-2-methylpropoxy)-2-methylquinoline-3-carboxylic Acid]
melting point: 195 to 198 °C

Cc1nc2cccc(OC3CCCCC3)c2c(N)c1C(=O)O [Example 36, 4-amino-5-(cyclohexyloxy)-2-methylquinoline-3-carboxylic Acid]
melting point: 220 to 221.5 °C

Cc1nc2cccc(OCC(C)C)c2c(N)c1C(=O)O [Example 41, 4-amino-5-isobutoxy-2-methylquinoline-3-carboxylic Acid]
melting point: 203.7 °C

Cc1nc2cccc(OCC(C)(C)C(=O)NC3CC3)c2c(N)c1C(=O)O [Example 135, 4-amino-5-(3-(cyclopropylamino)-2,2-dimethyl-3-oxopropoxy)-2-methyl-quinoline-3-carboxylic Acid]
melting point: 227 to 229 °C

Cc1nc2cccc(OCC(C)(C)C(=O)NC3CCC3)c2c(N)c1C(=O)O [Example 136, 4-amino-5-(3-(cyclobutylamino)-2,2-dimethyl-3-oxopropoxy)-2-methylquinoline-3-carboxylic Acid]
melting point: 183 to 187 °C

Cc1nc2cccc(O[C@H]3CC[C@H](NC(=O)C(C)C)CC3)c2c(N)c1C(=O)O [Example 137, 4-amino-5-(((1,4)-trans-4-isobutyramidocyclohexyl)oxy)-2-methylquinoline-3-carboxylic Acid]
melting point: 183 to 185 °C

Cc1nc2cccc(OCC(C)(C)NC(=O)CC(C)C)c2c(N)c1C(=O)O [Example 138, 4-amino-2-methyl-5-(2-methyl-2-(3-methylbutanamido)propoxy)quinoline-3-carboxylic Acid]
melting point: 195 to 198 °C

Cc1nc2cccc(OCC(C)(C)NC(=O)C(C)C)c2c(N)c1C(=O)O [Example 139, 4-amino-5-(2-isobutyramido-2-methylpropoxy)-2-methylquinoline-3-carboxylic Acid]
melting point: 184 to 186 °C

Cc1nc2cccc(OCC(C)(C)NC(=O)C3CCOCC3)c2c(N)c1C(=O)O [Example 140, 4-amino-2-methyl-5-(2-methyl-2-(tetrahydro-2H-pyran-4-carboxamido)-propoxy)quinoline-3-carboxylic Acid]
melting point: 170 to 173 °C

CCC(=O)NC(C)(C)COc1cccc2nc(C)c(C(=O)O)c(N)c12 [Example 141, 4-amino-2-methyl-5-(2-methyl-2-propionamidopropoxy)quinoline-3-carboxylic Acid]
melting point: 189 to 193 °C

Cc1nc2cccc(OCC(C)(C)NC(=O)C3CCC3)c2c(N)c1C(=O)O [Example 142, 4-amino-5-(2-(cyclobutanecarboxamido)-2-methylpropoxy)-2-methylquinoline-3-carboxylic Acid]
melting point: 186 to 190 °C

Cc1nc2cccc(OC3CCN(C(=O)C(C)C)CC3)c2c(N)c1C(=O)O [Example 143, 4-amino-5-((1-isobutyrylpiperidin-4-yl)oxy)-2-methylquinoline-3-carboxylic Acid]
melting point: 184 to 186 °C

CCNC(=O)C(C)(C)COc1cccc2nc(C)c(C(=O)O)c(N)c12 [Example 144, 4-amino-5-(3-(ethylamino)-2,2-dimethyl-3-oxopropoxy)-2-methylquinoline-3-carboxylic Acid]
melting point: 168 to 170 °C

O=C(O)/C=C/c1ccc(O)c(O)c1 [caffeic acid]
% Remaining @ 1 hr ([1]; buffer, 1 h, 100 ppm, pH 2.8): 98.02% | % Remaining @ 2 hrs ([1]; buffer, 2 h, 100 ppm, pH 2.8): 99.54% | % Remaining @ 4 hrs ([1]; buffer, 4 h, 100 ppm, pH 2.8): 98.74% | % Remaining @ 6 hrs ([1]; buffer, 6 h, 100 ppm, pH 2.8): 95.55%

O=c1ccc2ccc(O)c(O)c2o1 [daphnetin]
% Remaining @ 1 hr ([1]; buffer, 1 h, 100 ppm, pH 2.8): 99.13% | % Remaining @ 2 hrs ([1]; buffer, 2 h, 100 ppm, pH 2.8): 99.76% | % Remaining @ 4 hrs ([1]; buffer, 4 h, 100 ppm, pH 2.8): 98.13%

COc1cc(/C=C/C(=O)O)ccc1O [ferulic acid]
% Remaining @ 1 hr ([1]; buffer, 1 h, 100 ppm, pH 2.8): 95.41% | % Remaining @ 2 hrs ([1]; buffer, 2 h, 100 ppm, pH 2.8): 96.49% | % Remaining @ 4 hrs ([1]; buffer, 4 h, 100 ppm, pH 2.8): 93.43% | % Remaining @ 6 hrs ([1]; buffer, 6 h, 100 ppm, pH 2.8): 93.85%

COc1cc([C@@H]2CC(=O)c3c(O)cc(O)cc3O2)ccc1O [homoeriodictol, homoeriodictyol]
% Remaining @ 1 hr ([1]; buffer, 1 h, 12.5 ppm, pH 2.8): 90.83% | % Remaining @ 2 hrs ([1]; buffer, 2 h, 12.5 ppm, pH 2.8): 82.75% | % Remaining @ 4 hrs ([1]; buffer, 4 h, 12.5 ppm, pH 2.8): 57.70% | % Remaining @ 6 hrs ([1]; buffer, 6 h, 12.5 ppm, pH 2.8): 24.54%

C[C@@H]1O[C@@H](O[C@H]2[C@H](Oc3cc(O)c4c(c3)O[C@H](c3ccc(O)cc3)CC4=O)O[C@H](CO)[C@@H](O)[C@@H]2O)[C@H](O)[C@H](O)[C@H]1O [naringin]
% Remaining @ 1 hr ([1]; buffer, 1 h, 50 ppm, pH 2.8): 90.42% | % Remaining @ 2 hrs ([1]; buffer, 2 h, 50 ppm, pH 2.8): 75.92% | % Remaining @ 4 hrs ([1]; buffer, 4 h, 50 ppm, pH 2.8): 55.54% | % Remaining @ 6 hrs ([1]; buffer, 6 h, 50 ppm, pH 2.8): 41.50%

COc1ccc(CCC(=O)c2c(O)cc(O[C@@H]3O[C@H](CO)[C@@H](O)[C@H](O)[C@H]3O[C@@H]3O[C@@H](C)[C@H](O)[C@@H](O)[C@H]3O)cc2O)cc1O [neohesperidin dihydrochalcone]
% Remaining @ 1 hr ([1]; buffer, 1 h, 50 ppm, pH 2.8): 91.42% | % Remaining @ 2 hrs ([1]; buffer, 2 h, 50 ppm, pH 2.8): 82.53% | % Remaining @ 4 hrs ([1]; buffer, 4 h, 50 ppm, pH 2.8): 66.95% | % Remaining @ 6 hrs ([1]; buffer, 6 h, 50 ppm, pH 2.8): 56.72%

O=C(CCc1ccc(O)cc1)c1c(O)cc(O)cc1O [phloretin]
% Remaining @ 1 hr ([1]; buffer, 1 h, 25 ppm, pH 2.8): 89.62% | % Remaining @ 2 hrs ([1]; buffer, 2 h, 25 ppm, pH 2.8): 80.75% | % Remaining @ 4 hrs ([1]; buffer, 4 h, 25 ppm, pH 2.8): 64.60% | % Remaining @ 6 hrs ([1]; buffer, 6 h, 25 ppm, pH 2.8): 50.64%

COc1cc2ccc(=O)oc2cc1O [scopoletin]
% Remaining @ 4 hrs ([1]; buffer, 4 h, 100 ppm, pH 2.8): 100.07% | % Remaining @ 6 hrs ([1]; buffer, 6 h, 100 ppm, pH 2.8): 95.72%
